Results on twelve molecules are retold here after patent US20100137313A1 (ASTRAZENECA AB, priority 2008, published 2010).

Chain of S. pneumoniae Topoisomerase IV ATPase (ParE) (Q59961 whole entry): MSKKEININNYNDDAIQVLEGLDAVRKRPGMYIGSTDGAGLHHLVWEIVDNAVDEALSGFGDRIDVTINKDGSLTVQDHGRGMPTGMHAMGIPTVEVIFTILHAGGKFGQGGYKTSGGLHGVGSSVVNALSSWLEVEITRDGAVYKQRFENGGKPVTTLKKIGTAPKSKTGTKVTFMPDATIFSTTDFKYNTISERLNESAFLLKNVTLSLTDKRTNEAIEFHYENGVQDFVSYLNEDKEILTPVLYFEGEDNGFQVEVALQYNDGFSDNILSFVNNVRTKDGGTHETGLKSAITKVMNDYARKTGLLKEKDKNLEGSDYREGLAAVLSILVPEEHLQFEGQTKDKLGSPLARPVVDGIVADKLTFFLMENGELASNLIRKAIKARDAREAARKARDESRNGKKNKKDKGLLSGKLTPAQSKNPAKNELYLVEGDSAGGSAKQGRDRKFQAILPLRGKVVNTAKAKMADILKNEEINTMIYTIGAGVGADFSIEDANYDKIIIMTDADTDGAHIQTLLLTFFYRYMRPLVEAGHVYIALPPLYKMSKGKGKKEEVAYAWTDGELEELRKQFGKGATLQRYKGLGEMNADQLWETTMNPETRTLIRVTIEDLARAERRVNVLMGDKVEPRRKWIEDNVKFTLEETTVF

One assay addresses S. pneumoniae Topoisomerase IV ATPase (ParE) (Streptococcus pneumoniae serotype 4, UniProt Q59961). The assay is described as follows: S. pneumoniae Topoisomerase IV ATPase inhibition. The format is biochemical. The note with it: values marked * are an average of two or more data points. An outline of the steps: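 Phosphate release by ParE ATPase from S. pneumoniae read colorimetrically (malachite green, 650 nm), enzyme 1.25 nM, ATP 160 μM, salmon sperm DNA present, buffer 20 mM Tris pH 8.0 with 8 mM MgCl2. IC50 over 10 compound concentrations, EDTA (20 μM) and DMSO controls defining inhibition range.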
Turning to `O=C(O)[C@@H]1C[C@H]1c1cccc(-c2cnc(Nc3ccc(F)c(Cl)c3)nc2-n2ccc(C(F)(F)F)n2)c1` [Example 575, (1R,2R)-2-(3-(2-(3-chloro-4-fluorophenvlamino)-4-(3-(trifluoromethyl)-1H-pyrazol-1-yl)pyrimidin-5-yl)phenyl)cyclopropanecarboxylic acid], the “% Inh (13 μM) of S. pneumoniae Topoisomerase IV ATPase” value worked out at 100%.

Staying with this assay, now noted: values marked * are an average of two or more data points, read-out: % Inh (13 μM) of S. pneumoniae Topoisomerase IV ATPase.
Regarding `COc1cc(F)cc(Nc2ncc(-c3cnc(OC)c(C(=O)NS(C)(=O)=O)c3)c(-n3nc(C(F)(F)F)cc3C)n2)c1` [Example 900, 5-(2-(3-fluoro-5-methoxyphenylamino)-4-(5-methyl-3-(trifluoromethyl)-1H-pyrazol-1-yl)pyrimidin-5-yl)-2-methoxy-N-(methylsulfonyl)nicotinamide], the inhibition at 13 µM came to 100%.
On the same count and under the same terms, then `Fc1ccc(Nc2ncc(-c3cncnc3)c(-n3ccnc3)n2)cc1Cl` [Example 1113, N-(3-chloro-4-fluorophenyl)-4-imidazol-1-yl-5-pyrimidin-5-ylpyrimidin-2-amine], with 72%; and `COc1cc(Nc2ncc(-c3cccc(/C=C/C(=O)O)c3)c(N3CCOCC3)n2)cc([N+](=O)[O-])c1` [Example 453], with 92%; and `COc1cc(F)cc(Nc2ncc(-c3ccc(C(=O)O)s3)c(-n3ccc(C(F)(F)F)n3)n2)c1` [Example 887, 5-(2-(3-fluoro-5-methoxyphenylamino)-4-(3-(trifluoromethyl)-1H-pyrazol-1-yl)pyrimidin-5-yl)thiophene-2-carboxylic acid], with 100%.
As to `CCOC(=O)c1cncc(-c2cnc(Nc3ccc(F)c(Cl)c3)nc2N2C(C)CCC2C)c1` (stereo not drawn) [Example 125, ethyl 5-[2-[(3-chloro-4-fluorophenyl)amino]-4-(2,5-dimethylpyrrolidin-1-yl)pyrimidin-5-yl]pyridine-3-carboxylate], the inhibition at 13 µM worked out at 17.5%.
As for `CCOC(=O)c1cncc(-c2cnc(Nc3ccc(F)c(Cl)c3)nc2N[C@H]2CC[C@H](O)CC2)c1` [Example 128, ethyl 5-[2-[(3-chloro-4-fluorophenyl)amino]-4-[(trans-4-hydroxycyclohexyl)amino]pyrimidin-5-yl]pyridine-3-carboxylate], the inhibition at 13 µM is -16.2%.
Still for that read-out and setting: the result for `Fc1ccc(Nc2ncc(-c3cncnc3)c(N3CCC(N4CCOCC4)CC3)n2)cc1Cl` [Example 62, N-(3-chloro-4-fluorophenyl)-4-(4-morpholin-4-ylpiperidin-1-yl)-5-pyrimidin-5-ylpyrimidin-2-amine] reads 71%; that for `CCCS(=O)(=O)NC(=O)c1cc(-c2cnc(Nc3cc(C)cc(C)c3)nc2-n2ccc(C(F)(F)F)n2)cnc1OC` [Example 824, 5-{2-[(3,5-dimethylphenyl)amino]-4-[3-(trifluoromethyl)-1H-pyrazol-1-yl]pyrimidin-5-yl}-2-methoxy-N-(propylsulfonyl)pyridine-3-carboxamide], 100%.
On the same count and under the same terms, then `O=C1NC(=O)c2cc(-c3cnc(Nc4ccc(F)c(Cl)c4)nc3-n3ccc(C(F)(F)F)n3)ccc21` [Example 1009, 5-(2-(3-Chloro-4-fluorophenylamino)-4-(3-(trifluoromethyl)-1H-pyrazol-1-yl)pyrimidin-5-yl)isoindole-1,3-dione], with 92%; and `CNC(=O)C1CCN(c2nc(Nc3ccc(F)c(Cl)c3)ncc2-c2cncnc2)CC1` [Example 63, 1-[2-[(3-chloro-4-fluorophenyl)amino]-5-pyrimidin-5-ylpyrimidin-4-yl]-N-methylpiperidine-4-carboxamide], with 69.9%.
Same read-out and setting: then `O=C(O)/C=C/c1cccc(-c2cnc(Nc3ccc(F)c(Cl)c3)nc2-n2cccn2)c1` [Example 1120, (E)-3-[3-[2-[(3-chloro-4-fluorophenyl)amino]-4-pyrazol-1-ylpyrimidin-5-yl]phenyl]prop-2-enoic acid], with 79%.
